The values below are quoted from earlier work in patent US12070034B2, “Synergistic herbicidal combinations” (UPL LTD, priority 2017, dated 2024).

SMILES strings stand for the structures.

The conditions of this data set: acid form, before neutralisation with ammonium phosphate dibasic.

Consider `Nc1c(Cl)c(Cl)nc(C(=O)O)c1Cl` [Picloram acid], for which the solubility is 560 mg/I.

For the molecule `O=C(O)COc1ccc(Cl)cc1Cl` [2,4-D acid], the solubility is listed as 311 mg/I.
